# Experimental data taken from ChEMBL document CHEMBL1148672, “Mimicking the biological activity of diazobenzo[b]fluorene natural products with electronically tuned diazofluorene analogs” (2006).
# The source made the active and inactive calls. The calls are words filed in the database; no cut-off is given here.
# Experiments:
# Nucleic Acid [1] = test: Cleavage of supercoiled DNA plasmid pBR322 after 2 days in presence of dithiothreitol; assay type: nucleic-acid assay
# Nucleic Acid [2] = test: Cleavage of supercoiled DNA plasmid pBR322 after 2 days; assay type: nucleic-acid assay
# Nucleic Acid [3] = test: Conversion of type 1 supercoiled DNA to type 2 nicked DNA in presence of dithiothreitol; assay type: nucleic-acid assay; set-up: concentration or dose not given beside the values
# Nucleic Acid [4] = test: Conversion of type 1 supercoiled DNA to type 2 nicked DNA; assay type: nucleic-acid assay; set-up: concentration or dose not given beside the values
# Nucleic Acid [5] = test: Conversion of type 1 supercoiled DNA to type 2 nicked DNA in presence of dithiothreitol relative to Kinamycin D; assay type: nucleic-acid assay
# Nucleic Acid [6] = test: Cleavage of supercoiled DNA plasmid pBR322 after 2 days in presence of sodium cyanide; assay type: nucleic-acid assay
# Nucleic Acid [7] = test: Cleavage of supercoiled DNA plasmid pBR322 after 2 days in presence of NADPH; assay type: nucleic-acid assay
# HeLa [8] = test: Antiproliferative activity against HeLa cells at 100 nM; assay type: functional, cell-based; details: Homo sapiens
# HeLa [9] = test: Antiproliferative activity against HeLa cells at 100 nM after 12 hrs; assay type: functional; details: Homo sapiens
SMILES,Activity (Nucleic Acid [2]),Activity (Nucleic Acid [3]),Activity (Nucleic Acid [4]),also measured
[N-]=[N+]=C1c2ccccc2-c2c(N)cccc21,Active,18%,44%,Activity (Nucleic Acid [1]): Active; Activity (Nucleic Acid [5]): 64%
COc1ccc(OC)c2c1C(=[N+]=[N-])c1ccccc1-2,,9%,< 5%,
COc1cccc2c1-c1ccccc1C2=[N+]=[N-],,13%,< 5%,
[N-]=[N+]=C1c2ccccc2-c2cccc(Cl)c21,,< 5%,< 5%,
[N-]=[N+]=c1c2c(=O)ccc(=O)c=2c2ccccc12,,10%,< 5%,
CC(=O)O[C@@H]1c2c(c3c(=O)c4cccc(O)c4c(=O)c=3c2=[N+]=[N-])[C@H](O)[C@@H](OC(C)=O)[C@]1(C)O,inactive,28%,< 5%,Activity (Nucleic Acid [1]): Time-dependent effect
[N-]=[N+]=C1c2ccccc2-c2c(Cl)cccc21,,< 5%,< 5%,
COc1cccc2c1C(=O)c1ccccc1-2,inactive,,,
Nc1cccc2c1-c1ccccc1C2=O,inactive,,,
[N-]=[N+]=C1c2ccccc2-c2ccccc21,,< 5%,< 5%,
[N-]=[N+]=C1c2ccccc2-c2cccc([N+](=O)[O-])c21,,< 5%,< 5%,
[N-]=[N+]=C1c2ccccc2-c2c1cccc2[N+](=O)[O-],,< 5%,< 5%,
COc1cccc2c1C(=[N+]=[N-])c1ccccc1-2,,41%,11%,Activity (Nucleic Acid [6]): inactive; Activity (Nucleic Acid [7]): inactive; Activity (HeLa [8]): Time-dependent effect; Activity (Nucleic Acid [5]): 150%; inhibition at 0.1 µM (HeLa [9]): 35%
